pIC50: −log10 of the molar value.
What was measured:
MMP-17 catalytic domain = biological target: T1, MMP-17 catalytic domain (Homo sapiens, UniProt Q9ULZ9); assay: Thiopeptolide substrate hydrolysis inhibition assay, MMP-17 catalytic domain; format: biochemical; settings: read-out: MMP-17 CD IC50
T1 construct: MMP-14 catalytic domain, and MMP-17 catalytic domain
T1 sequence (Q9ULZ9 126-295 limits assumed): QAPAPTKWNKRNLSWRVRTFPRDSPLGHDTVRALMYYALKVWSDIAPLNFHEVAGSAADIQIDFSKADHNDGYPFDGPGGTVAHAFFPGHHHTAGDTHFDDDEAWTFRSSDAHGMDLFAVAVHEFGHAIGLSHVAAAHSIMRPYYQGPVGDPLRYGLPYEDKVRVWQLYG
Source text: (§1) The assay methods of Biological Examples 1-4 measure the amount by which a test compound reduces the hydrolysis of a thiopeptolide substrate catalyzed by a matrix metalloproteinase enzyme or catalytic domain thereof. It has been shown previously by Ye Qi-Zhuang, Hupe D., and Johnson L. (Current Medicinal Chemistry, 1996;3:407-418) that inhibitor activity against a catalytic domain of an MMP is predictive of the inhibitor activity against the respective full-length MMP enzyme. The methods described below for the inhibition of MMP-13 may also be adapted and used to determine the ability of the compounds of Formula I to inhibit other matrix metalloproteases such as MMP-1, MMP-2, MMP-3, MMP-7, MMP-8, MMP-9, MMP-12, MMP-14, MMP-17, and the like.
(§2) Thiopeptolide substrates show virtually no decomposition or hydrolysis at or below neutral pH in the absence of a matrix metalloproteinase enzyme. A typical thiopeptolide substrate commonly utilized for assays is Ac-Pro-Leu-Gly-thioester-Leu-Leu-Gly-OEt. A 100 μL assay mixture will contain 50 mM of N-2-hydroxyethylpiperazine-N′-2-ethanesulfonic acid buffer (“HEPES,” pH 7.0), 10 mM CaCl2, 100 μM thiopeptolide substrate, and 1 mM 5,5′-dithio-bis-(2-nitro-benzoic acid) (DTNB). […] The change in absorbance at 405 nm is monitored on a Thermo Max microplate reader (molecular Devices, Menlo Park, Calif.) at room temperature (22° C.). The calculation of the amount of hydrolysis of the thiopeptolide substrate is based on E412=13600 M^−1 cm^−1 for the DTNB-derived product 3-carboxy-4-nitrothiophenoxide. Assays are carried out with and without matrix metalloproteinase inhibitor compounds, and the amount of hydrolysis is compared for a determination of inhibitory activity of the test compounds.
(§3) Test compounds were evaluated at various concentrations in order to determine their respective IC50 values, the micromolar concentration of compound required to cause a 50% inhibition of catalytic activity of the respective enzyme.
(§4) Some representative compounds of Formula I have been evaluated for their ability to inhibit MMP-13, MMP-1FL, MMP-3CD, MMP-7FL, MMP-8FL, MMP-9FL, MMP-12CD, MMP-14CD, and/or MMP-17CD, wherein FL means full-length enzyme and CD means a catalytic domain of the full-length enzyme. Test compounds can be evaluated at various concentrations in order to determine their respective IC50 values, the micromolar concentration of compound required to cause a 50% inhibition of the hydrolytic activity of the respective enzyme.
(§5) Certain compounds of Formula I have also been assayed with MMP-1 full-length, MMP-3 catalytic domain, MMP-7 full-length, MMP-8 full-length, MMP-9 full-length, MMP-12 catalytic domain, MMP-14 catalytic domain, and MMP-17 catalytic domain. […] In Biological Table 2, the compound example numbers for the Compound Examples are indicated in the column labelled “Ex. No.”

MMP-3 catalytic domain = biological target: T2, MMP-3 catalytic domain (Homo sapiens, UniProt P08254); assay: Thiopeptolide substrate hydrolysis inhibition assay, MMP-3 catalytic domain; format: biochemical; settings: MES buffer pH 6.0, read-out: MMP-3CD IC50
T2 construct: MMP-1 full-length, MMP-3 catalytic domain, MMP-7 full-length
T2 sequence (P08254 100-272 limits assumed): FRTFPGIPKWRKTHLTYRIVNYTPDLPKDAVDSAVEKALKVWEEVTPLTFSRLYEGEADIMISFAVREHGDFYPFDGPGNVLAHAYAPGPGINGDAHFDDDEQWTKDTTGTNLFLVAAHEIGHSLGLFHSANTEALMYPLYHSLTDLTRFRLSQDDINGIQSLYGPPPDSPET
Source text: as §1, §2, §3
It should be appreciated that the assay buffer used with MMP-3CD was 50 mM N-morpholinoethane sulfonate (“MES”) at pH 6.0 rather than the HEPES buffer at pH 7.0 described above.
as §4, §5

MMP-14 catalytic domain = biological target: T3, MMP-14 catalytic domain (Homo sapiens, UniProt P50281); assay: Thiopeptolide substrate hydrolysis inhibition assay, MMP-14 catalytic domain; format: biochemical; settings: read-out: MMP-14CD IC50
T3 construct: MMP-14 catalytic domain, and MMP-17 catalytic domain
Source text: as §1, §2, §3, §4, §5

MMP-12 catalytic domain = biological target: T4, MMP-12 catalytic domain (Homo sapiens, UniProt P39900); assay: Thiopeptolide substrate hydrolysis inhibition assay, MMP-12 catalytic domain; format: biochemical; settings: read-out: MMP-12CD IC50
T4 construct: MMP-9 full-length, MMP-12 catalytic domain, MMP-14 catalytic domain
T4 sequence (P39900 106-263 limits assumed): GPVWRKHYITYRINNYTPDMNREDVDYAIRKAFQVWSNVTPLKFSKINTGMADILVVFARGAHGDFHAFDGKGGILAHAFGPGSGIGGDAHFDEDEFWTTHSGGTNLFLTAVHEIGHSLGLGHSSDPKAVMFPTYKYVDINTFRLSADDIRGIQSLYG
Source text: as §1, §2, §3, §4, §5

MMP-13 catalytic domain = MMP-13 catalytic domain (Homo sapiens, UniProt P45452); assay: Thiopeptolide substrate hydrolysis inhibition assay, MMP-13 catalytic domain; format: biochemical
Source text: The methods described below for the inhibition of MMP-13 may also be adapted and used to determine the ability of the compounds of Formula I to inhibit other matrix metalloproteases such as MMP-1, MMP-2, MMP-3, MMP-7, MMP-8, MMP-9, MMP-12, MMP-14, MMP-17, and the like.
Thiopeptolide substrates show virtually no decomposition or hydrolysis at or below neutral pH in the absence of a matrix metalloproteinase enzyme. A typical thiopeptolide substrate commonly utilized for assays is Ac-Pro-Leu-Gly-thioester-Leu-Leu-Gly-OEt. A 100 μL assay mixture will contain 50 mM of N-2-hydroxyethylpiperazine-N′-2-ethanesulfonic acid buffer (“HEPES,” pH 7.0), 10 mM CaCl2, 100 μM thiopeptolide substrate, and 1 mM 5,5′-dithio-bis-(2-nitro-benzoic acid) (DTNB). […] Assays are carried out with and without matrix metalloproteinase inhibitor compounds, and the amount of hydrolysis is compared for a determination of inhibitory activity of the test compounds.

[1] = Pharmacokinetics in Sprague-Dawley rats (single IV or oral dose); format: in vivo, rat; settings: rat, blood, Sprague-Dawley rats, single 5 mg/kg intravenous dose
Source text: For comparison purposes, a reference compound was separately characterized according to its pharmacokinetics properties except AUC in a similar manner. The reference compound (“Reference Compound 1”) was the compound of Example 188 of PCT International Patent Application Publication number WO 02/064572 A1, which is also described in PCT International Patent Application Publication number WO 02/064080 A2 in Table IVb on page 76, 5th species from the top. […] Reference Compound 1 is named 4-[6-(4-methoxy-benzylcarbamoyl)- 1 -methyl-2,4-dioxo- 1,4-dihydro-2H-pyrido[3,4-d]pyrimidin-3-ylmethyl]-benzoic acid, and has the structure drawn below: [drawing 98]

clearance ([1]; read-out: IV CL) [mL/min/kg]	half-life ([1]; read-out: IV T1/2 (converted)) [min]	Compound	pIC50 (MMP-17 catalytic domain)	pIC50 (MMP-3 catalytic domain)	pIC50 (MMP-14 catalytic domain)	pIC50 (MMP-12 catalytic domain)	pIC50 (MMP-13 catalytic domain)
–	–	CSc1ccc(CNC(=O)c2cc3c(=O)n(Cc4ccc(C(=O)O)cc4)cnc3cn2)cc1 [Compound Example 7, 4-[6-(4-methylsulfanyl-benzylcarbamoyl)-4-oxo-4H-pyrido[3,4-d]pyrimidin-3-ylmethyl]-benzoic acid]	< 4.00	< 5.00	< 4.52	4.85	7.96
–	–	O=C(O)c1ccc(Cn2cnc3cnc(C(=O)NCc4ccc(F)cc4)cc3c2=O)cc1 [Compound Example 8, 4-[6-(4-fluoro-benzylcarbamoyl)-4-oxo-4H-pyrido[3,4-d]pyrimidin-3-ylmethyl]-benzoic acid]	< 4.00	4.48	< 4.00	< 4.52	8.37
–	–	O=C(O)c1ccc(Cn2cnc3cnc(C(=O)NCc4ccccc4)cc3c2=O)cc1 [Compound Example 9]	< 4.00	< 4.52	< 4.00	< 4.52	7.70
48.9	36	COc1ccc(CNC(=O)c2cc3c(=O)n(Cc4ccc(C(=O)O)cc4)c(=O)n(C)c3cn2)cc1 [Reference Compound 1, 4-[6-(4-methoxy-benzylcarbamoyl)-1-methyl-2,4-dioxo-1,4-dihydro-2H-pyrido[3,4-d]pyrimidin-3-ylmethyl]-benzoic acid, reference compound]	–	–	–	–	–

Reference: US20050085447A1, “Pyrido[3,4-d]pyrimidine derivatives as matrix metalloproteinase-13 inhibitors” (Warner-Lambert Company LLC, priority 2003, published 2005)
